According to ChEMBL document CHEMBL1201862, “PubChem BioAssay data set” (2004):
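Method: 48-hour compound exposure of cells in 96-well plates, five concentrations, linear interpolation of endpoints. Here, GI50 denotes the concentration required for 50% inhibition of growth.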 Active and inactive are the calls of the source. Cut-off read from the data, not from the text of the source: active = GI50 up to about 1.1 µM and inactive = higher.

What was measured:
Assay in all cases: inhibition of tumour cell growth, NCI panel, 48 h
SK-MEL-2 = tested on: SK-MEL-2
DLD-1 = tested on: DLD-1
SNB-78 = tested on: SNB-78
HT-29 = tested on: HT-29
EKVX = tested on: EKVX
OVCAR-4 = tested on: OVCAR-4
DMS-273 = tested on: DMS-273
SK-MEL-5 = tested on: SK-MEL-5
UACC-62 = tested on: UACC-62
LOX IMVI = tested on: LOX IMVI
M19-MEL = tested on: M19-MEL
LXFL 529 = tested on: LXFL 529
COLO 205 = tested on: COLO 205
SF-295 = tested on: SF-295
NCI-H23 = tested on: NCI-H23
UACC-257 = tested on: UACC-257
DMS-114 = tested on: DMS-114
RPMI-8226 = tested on: RPMI-8226
HL-60 = tested on: HL-60
M14 = tested on: M14
SR = tested on: SR
K562 = tested on: K562
NCI-H522 = tested on: NCI-H522
SNB-75 = tested on: SNB-75
KM12 = tested on: KM12
OVCAR-3 = tested on: OVCAR-3
786-0 = tested on: 786-0
NCI-H226 = tested on: NCI-H226
A498 = tested on: A498
Malme-3M = tested on: Malme-3M
HOP-18 = tested on: HOP-18
CCRF-CEM = tested on: CCRF-CEM
SNB-19 = tested on: SNB-19
ACHN = tested on: ACHN
SK-OV-3 = tested on: SK-OV-3
HOP-62 = tested on: HOP-62
SK-MEL-28 = tested on: SK-MEL-28
SN12C = tested on: SN12C
NCI-H460 = tested on: NCI-H460
MOLT-4 = tested on: MOLT-4
CAKI-1 = tested on: CAKI-1
KM-20L2 = tested on: KM-20L2
A549 = tested on: A549
SF-268 = tested on: SF-268
U-251 = tested on: U-251
HCT-116 = tested on: HCT-116
IGROV-1 = tested on: IGROV-1
SW-620 = tested on: SW-620
HCC 2998 = tested on: HCC 2998
OVCAR-8 = tested on: OVCAR-8
TK-10 = tested on: TK-10
HCT-15 = tested on: HCT-15
OVCAR-5 = tested on: OVCAR-5
UO-31 = tested on: UO-31

CC1=C[P+](Cc2ccccc2)(c2ccccc2)CC1 (centres undefined)
GI50 (SK-MEL-2): 78.7 µM (inactive)
GI50 (DLD-1): > 100 µM (inactive)
GI50 (SNB-78): > 100 µM (inactive)
GI50 (HT-29): 65.2 µM (inactive)
GI50 (EKVX): 80.2 µM (inactive)
GI50 (OVCAR-4): > 100 µM (inactive)
GI50 (DMS-273): 80.9 µM (inactive)
GI50 (SK-MEL-5): 30.9 µM (inactive)
GI50 (UACC-62): 64.3 µM (inactive)
GI50 (LOX IMVI): 77.3 µM (inactive)
GI50 (M19-MEL): 31.8 µM (inactive)
GI50 (LXFL 529): 37.7 µM (inactive)
GI50 (COLO 205): 31.7 µM (inactive)
GI50 (SF-295): > 100 µM (inactive)
GI50 (NCI-H23): 97.1 µM (inactive)
GI50 (UACC-257): 27.8 µM (inactive)
GI50 (DMS-114): 28.6 µM (inactive)
GI50 (RPMI-8226): 24.1 µM (inactive)
GI50 (HL-60): 30.1 µM (inactive)
GI50 (M14): 71.6 µM (inactive)
GI50 (SR): 74.3 µM (inactive)
GI50 (K562): 93.8 µM (inactive)
GI50 (NCI-H522): 67.5 µM (inactive)
GI50 (SNB-75): 61.1 µM (inactive)
GI50 (KM12): 85.3 µM (inactive)
GI50 (OVCAR-3): 43.2 µM (inactive)

O=c1cccccc1NCCOCCNc1cccccc1=O
GI50 (SK-MEL-2): > 100 µM (inactive)
GI50 (DLD-1): > 100 µM (inactive)
GI50 (SNB-78): > 100 µM (inactive)
GI50 (786-0): > 100 µM (inactive)
GI50 (NCI-H226): > 100 µM (inactive)
GI50 (A498): > 100 µM (inactive)
GI50 (Malme-3M): > 100 µM (inactive)
GI50 (HOP-18): 29 µM (inactive)
GI50 (HT-29): > 100 µM (inactive)
GI50 (CCRF-CEM): > 100 µM (inactive)
GI50 (SNB-19): > 100 µM (inactive)
GI50 (EKVX): > 100 µM (inactive)
GI50 (OVCAR-4): > 100 µM (inactive)
GI50 (DMS-273): > 100 µM (inactive)
GI50 (SK-MEL-5): > 100 µM (inactive)
GI50 (UACC-62): > 100 µM (inactive)
GI50 (LOX IMVI): > 100 µM (inactive)
GI50 (ACHN): > 100 µM (inactive)
GI50 (M19-MEL): > 100 µM (inactive)
GI50 (LXFL 529): > 100 µM (inactive)
GI50 (SK-OV-3): > 100 µM (inactive)
GI50 (COLO 205): > 100 µM (inactive)
GI50 (HOP-62): > 100 µM (inactive)
GI50 (SK-MEL-28): > 100 µM (inactive)
GI50 (SN12C): > 100 µM (inactive)
GI50 (SF-295): > 100 µM (inactive)
GI50 (NCI-H23): > 100 µM (inactive)
GI50 (NCI-H460): > 100 µM (inactive)
GI50 (MOLT-4): > 100 µM (inactive)
GI50 (UACC-257): > 100 µM (inactive)
GI50 (CAKI-1): > 100 µM (inactive)
GI50 (KM-20L2): > 100 µM (inactive)
GI50 (A549): > 100 µM (inactive)
GI50 (SF-268): > 100 µM (inactive)
GI50 (U-251): > 100 µM (inactive)
GI50 (DMS-114): > 100 µM (inactive)
GI50 (RPMI-8226): > 100 µM (inactive)
GI50 (HCT-116): > 100 µM (inactive)
GI50 (HL-60): > 100 µM (inactive)
GI50 (M14): > 100 µM (inactive)
GI50 (IGROV-1): > 100 µM (inactive)
GI50 (SW-620): > 100 µM (inactive)
GI50 (K562): > 100 µM (inactive)
GI50 (HCC 2998): > 100 µM (inactive)
GI50 (NCI-H522): > 100 µM (inactive)
GI50 (SNB-75): 16.9 µM (inactive)
GI50 (OVCAR-8): > 100 µM (inactive)
GI50 (TK-10): > 100 µM (inactive)
GI50 (HCT-15): > 100 µM
GI50 (KM12): > 100 µM (inactive)
GI50 (OVCAR-5): > 100 µM (inactive)
GI50 (UO-31): > 100 µM (inactive)
GI50 (OVCAR-3): > 100 µM (inactive)
